Measured values published in the supplement of paper PMC11061612.

Columns and labels:
U-698-M [1] = assay: Bliss excess, mean over the matrix (fraction); higher = more synergy; settings: U-[…], B-Cell Non-Hodgkin's Lymphoma
Outline: (§1)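 Bliss excess equals the observed combination effect minus the expected value EA + EB − EA·EB, where EA and EB are the effects of each agent alone. Combination Emax is the second-highest inhibition within the matrix. Inhibition was scaled from CellTiter-Glo 2.0 luminescence, with 0 set by vehicle wells and 1 by blank wells, after 72 hours of two-drug dosing of cells plated in 1536-well plates.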

U-698-M [2] = assay: combination Emax (second highest fraction inhibited in the dose matrix, 72 h); higher = more inhibition; settings: B-Cell Non-Hodgkin's Lymphoma
Outline: as §1

[3] = first compound max 1 µM, partner max 1 µM, 7x7
[4] = first compound max 1 µM, partner max 10 µM, 7x7
[5] = first compound max 10 µM, partner max 1 µM, 7x7
[6] = first compound max 3 µM, partner max 3 µM
[7] = first compound max 1 µM, partner max 3 µM, 7x7
[8] = first compound max 10 µM, partner max 10 µM, 7x7
[9] = first compound max 10 µM, partner max 0.3 µM, 7x7

**Q.** Which Bliss excess (U-698-M [1]; [3]) does the source give for C[C@@H](c1ccc2nccn2c1)n1nnc2ncc(-c3cnn(C)c3)nc21 [Savolitinib] + Cc1c2c(nn1C)CSCc1cc(n(C)n1)CSc1cc(c3ccccc3c1)OCCCc1c(C(=O)O)n(C)c3c-2c(Cl)ccc13 [AZD5991] here?
**A.** Its Bliss excess is -0.0477.

**Q.** What about the “combination Emax” value (U-698-M [2]; [3]) of the same compound?
**A.** Its value is 0.978.

**Q.** What does the source list for COc1cccc(OCCCN)c1-c1cc(Nc2cnc(C#N)cn2)n[nH]1 [Prexasertib] + O=C(c1cc(Cc2n[nH]c(=O)c3ccccc23)ccc1F)N1CCN(C(=O)C2CC2)CC1 [Olaparib]?
**A.** Bliss excess (U-698-M [1]; [4]): -0.0433; combination Emax (U-698-M [2]; [4]): 0.953

**Q.** How did the Bliss excess (U-698-M [1]; [5]) turn out when Cc1cc2ncnn2cc1Nc1ncc2c(n1)n(C1CCOCC1)c(=O)n2C [AZD7648] + CCN(CCO)CCCOc1ccc2c(Nc3cc(CC(=O)Nc4cccc(F)c4)[nH]n3)ncnc2c1 [AZD2811] was run?
**A.** Its Bliss excess is 0.0631.

**Q.** What about the “combination Emax” value (U-698-M [2]; [5]) of the same compound?
**A.** The value was 0.444.

**Q.** O=C(c1cc(Cc2n[nH]c(=O)c3ccccc23)ccc1F)N1CCN(C(=O)C2CC2)CC1 [Olaparib] + CN(CC[C@H](CSC1=CC=CC=C1)NC2=C(C=C(C=C2)S(=O)(=O)NC(=O)C3=CC=C(C=C3)N4CCC(CC4)[C@H](C5=CC=CC=C5C6=CC=C(C=C6)Cl)O)S(=O)(=O)C(F)(F)F)CCO [AZD4320] was tested. Which Bliss excess (U-698-M [1]; [5]) did it give?
**A.** Its Bliss excess is -0.0494.

**Q.** And the “combination Emax” value (U-698-M [2]; [5])?
**A.** The value was 0.135.

**Q.** How did the Bliss excess (U-698-M [1]; [6]) turn out when CN(C)CCCOc1ccc(-c2ccc3ncc4c(c3c2)n(C2CCOCC2)c(=O)n4C)cn1 [AZD0156] + O=C(c1cc(Cc2n[nH]c(=O)c3ccccc23)ccc1F)N1CCN(C(=O)C2CC2)CC1 [Olaparib] was run?
**A.** The Bliss excess was 0.0153.

**Q.** What about the “combination Emax” value (U-698-M [2]; [6]) of the same compound?
**A.** Its value is 0.378.

**Q.** Which Bliss excess (U-698-M [1]; [5]) does the source give for O=C(c1cc(Cc2n[nH]c(=O)c3ccccc23)ccc1F)N1CCN(C(=O)C2CC2)CC1 [Olaparib] + Cc1c2c(nn1C)CSCc1cc(n(C)n1)CSc1cc(c3ccccc3c1)OCCCc1c(C(=O)O)n(C)c3c-2c(Cl)ccc13 [AZD5991] here?
**A.** The Bliss excess was 0.0244.

**Q.** And the “combination Emax” value (U-698-M [2]; [5])?
**A.** Its value is 0.987.

**Q.** What does the source list for CN(CCO)CC[C@H](CSc1ccccc1)Nc1ccc(S(=O)(=O)NC(=O)c2ccc(N3CCC([C@@H](O)c4ccccc4-c4ccc(Cl)cc4)CC3)cc2)cc1S(=O)(=O)C(F)(F)F [AZD4320] + Cn1cnc2c(F)c(Nc3ccc(Br)cc3Cl)c(C(=O)NOCCO)cc21 [Selumetinib]?
**A.** Bliss excess (U-698-M [1]; [7]): 0.058; combination Emax (U-698-M [2]; [7]): 0.42

**Q.** For CS(=O)(=O)CCNCc1ccc(-c2ccc3ncnc(Nc4ccc(OCc5cccc(F)c5)c(Cl)c4)c3c2)o1 [Lapatinib] + Cn1cnc2c(F)c(Nc3ccc(Br)cc3Cl)c(C(=O)NOCCO)cc21 [Selumetinib], which Bliss excess (U-698-M [1]; [8]) is on record?
**A.** The Bliss excess was -0.0215.

**Q.** And the “combination Emax” value (U-698-M [2]; [8])?
**A.** Its value is 0.585.

**Q.** CC(=O)Nc1cccc(-n2c(=O)n(C3CC3)c(=O)c3c(Nc4ccc(I)cc4F)n(C)c(=O)c(C)c32)c1 [Trametinib] + Cc1nc(-c2cn3c(n2)-c2ccc(-c4cnn(C(C)(C)C(N)=O)c4)cc2OCC3)n(C(C)C)n1 [Taselisib] was tested. Which Bliss excess (U-698-M [1]; [4]) did it give?
**A.** The Bliss excess was -0.0211.

**Q.** What about the “combination Emax” value (U-698-M [2]; [4]) of the same compound?
**A.** The value was 0.416.

**Q.** How did the Bliss excess (U-698-M [1]; [9]) turn out when N#Cc1cnc(Nc2cc(NC[C@H]3CNCCO3)c(C(F)(F)F)cn2)cn1 [SRA737] + CCc1c2c(nc3ccc(O)cc13)-c1cc3c(c(=O)n1C2)COC(=O)[C@]3(O)CC [SN-38] was run?
**A.** Its Bliss excess is -0.0229.

**Q.** And the “combination Emax” value (U-698-M [2]; [9])?
**A.** Its value is 0.963.

**Q.** Which Bliss excess (U-698-M [1]; [4]) does the source give for CC1(C)CCC(CN2CCN(c3ccc(C(=O)NS(=O)(=O)c4ccc(NCC5CCOCC5)c([N+](=O)[O-])c4)c(Oc4cnc5[nH]ccc5c4)c3)CC2)=C(c2ccc(Cl)cc2)C1 [Venetoclax] + C[C@@H]1COCCN1C2=NC(=NC(=C2)C3(CC3)[S@](=N)(=O)C)C4=C5C=CNC5=NC=C4 [AZD6738] here?
**A.** Its Bliss excess is -0.0392.

**Q.** And the “combination Emax” value (U-698-M [2]; [4])?
**A.** Its value is 0.86.

**Q.** Which results are given for COc1nnc2ccc(N3CCC(c4ccc(OCCN5CCN(C)C(=O)[C@H]5C)cc4)CC3)nn12 [AZD5153] + C[C@@H]1COCCN1C2=NC(=NC(=C2)C3(CC3)[S@](=N)(=O)C)C4=C5C=CNC5=NC=C4 [AZD6738]?
**A.** Bliss excess (U-698-M [1]; [4]): -0.0616; combination Emax (U-698-M [2]; [4]): 0.912

**Q.** CC(=O)c1c(C)c2cnc(Nc3ccc(N4CCNCC4)cn3)nc2n(C2CCCC2)c1=O [Palbociclib] + CC1(C)CCC(CN2CCN(c3ccc(C(=O)NS(=O)(=O)c4ccc(NCC5CCOCC5)c([N+](=O)[O-])c4)c(Oc4cnc5[nH]ccc5c4)c3)CC2)=C(c2ccc(Cl)cc2)C1 [Venetoclax] was tested. Which Bliss excess (U-698-M [1]; [5]) did it give?
**A.** The Bliss excess was -0.0676.

**Q.** What about the “combination Emax” value (U-698-M [2]; [5]) of the same compound?
**A.** Its value is 0.548.

**Q.** How did the Bliss excess (U-698-M [1]; [4]) turn out when CC1(C)CCC(CN2CCN(c3ccc(C(=O)NS(=O)(=O)c4ccc(NCC5CCOCC5)c([N+](=O)[O-])c4)c(Oc4cnc5[nH]ccc5c4)c3)CC2)=C(c2ccc(Cl)cc2)C1 [Venetoclax] + Cc1cc2ncnn2cc1Nc1ncc2c(n1)n(C1CCOCC1)c(=O)n2C [AZD7648] was run?
**A.** Its Bliss excess is 0.041.

**Q.** And the “combination Emax” value (U-698-M [2]; [4])?
**A.** Its value is 0.57.
